According to patent US9550778B2, “Substituted 6-aryl-imidazopyridine and 6-aryl-triazolopyridine carboxamide analogs as negative allosteric modulators of mGluR5” (Vanderbilt University, priority 2014, dated 2017):

Assays:
rat mGluR5 = rat mGluR5 (Rattus norvegicus (Rat), UniProt P31424); test: Calcium mobilization assay in HEK 293A cells stably expressing rat mGluR5; format: cell-based; settings: for IC50: HEK cells transfected with rat mGluR5, inhibition of glutamate EC80 response, ± standard error where average of at least three experiments; for remaining activity at 30 µM: HEK293-A, amplitude of response in the presence of 30 μM test compound as a percentage of maximal response (100 μM glutamate), read-out: % Glu Max
Sequence of rat mGluR5 (P31424 21-1203): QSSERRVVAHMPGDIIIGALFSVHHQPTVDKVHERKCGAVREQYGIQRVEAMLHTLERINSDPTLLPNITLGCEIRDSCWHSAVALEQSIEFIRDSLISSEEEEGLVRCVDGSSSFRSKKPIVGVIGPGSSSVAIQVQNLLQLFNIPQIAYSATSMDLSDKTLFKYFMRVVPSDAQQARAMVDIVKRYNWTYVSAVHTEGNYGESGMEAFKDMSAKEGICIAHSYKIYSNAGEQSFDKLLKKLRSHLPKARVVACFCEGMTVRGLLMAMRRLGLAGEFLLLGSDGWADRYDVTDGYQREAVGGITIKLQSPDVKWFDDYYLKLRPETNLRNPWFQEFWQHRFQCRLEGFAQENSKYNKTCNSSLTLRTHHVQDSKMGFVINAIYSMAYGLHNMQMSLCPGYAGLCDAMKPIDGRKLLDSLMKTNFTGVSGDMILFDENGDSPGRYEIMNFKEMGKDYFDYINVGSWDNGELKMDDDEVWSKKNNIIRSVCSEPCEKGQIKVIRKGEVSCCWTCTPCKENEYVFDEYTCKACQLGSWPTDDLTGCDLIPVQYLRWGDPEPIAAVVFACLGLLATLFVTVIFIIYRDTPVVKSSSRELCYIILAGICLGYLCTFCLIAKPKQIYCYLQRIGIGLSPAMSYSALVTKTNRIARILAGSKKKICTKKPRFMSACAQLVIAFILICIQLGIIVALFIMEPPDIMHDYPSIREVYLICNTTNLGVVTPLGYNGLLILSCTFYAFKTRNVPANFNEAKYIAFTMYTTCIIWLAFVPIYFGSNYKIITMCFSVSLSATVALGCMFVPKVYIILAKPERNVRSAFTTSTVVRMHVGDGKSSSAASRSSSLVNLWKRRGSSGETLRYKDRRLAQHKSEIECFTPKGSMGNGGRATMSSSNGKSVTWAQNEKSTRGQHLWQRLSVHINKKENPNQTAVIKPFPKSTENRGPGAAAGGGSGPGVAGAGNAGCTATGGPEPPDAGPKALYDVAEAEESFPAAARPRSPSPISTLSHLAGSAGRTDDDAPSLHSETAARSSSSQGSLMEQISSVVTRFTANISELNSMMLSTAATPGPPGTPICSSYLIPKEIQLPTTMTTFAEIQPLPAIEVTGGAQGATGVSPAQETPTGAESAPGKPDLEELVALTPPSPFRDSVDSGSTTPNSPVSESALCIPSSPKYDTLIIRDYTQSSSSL
Description: The cells were grown overnight at 37° C. in the presence of 5% CO2. […] Dye was removed, 20 μL of assay buffer was added, and the plate was incubated for 5 minutes at room temperature.
Ca^2+ flux was measured using the Functional Drug Screening System (FDSS7000, Hamamatsu, Japan). After establishment of a fluorescence baseline for about 3 seconds, the compounds of the present invention were added to the cells, and the response in cells was measured. 2.3 minutes later an EC20 concentration of the mGluR5 receptor agonist glutamate was added to the cells, and the response of the cells was measured for 1.9 minutes; an EC80 concentration of agonist was added and readings taken for an additional 1.7 minutes. All test compounds were dissolved and diluted to a concentration of 10 mM in 100% DMSO. Compounds were then serially diluted 1:3 in DMSO into 10 point concentration response curves, transferred to daughter plates, and further diluted into assay buffer to a 2× stock. Calcium fluorescence measures were recorded as fold over basal fluorescence; raw data was then normalized to the maximal response to glutamate.
The raw data file containing all time points was used as the data source in the analysis template. This was saved by the FDSS as a tab-delimited text file. Data were normalized using a static ratio function (F/F0) for each measurement of the total 360 values per well divided by each well's initial value. Data were then reduced to peak amplitudes (Max−Initial Min) using a time range that starts approximately 3 seconds prior to the glutamate EC20/EC80 addition and continues for approximately 90-120 seconds. This is sufficient time to capture the peak amplitude of the cellular calcium response. Individual amplitudes were expressed as % EMax by multiplying each amplitude by 100 and then dividing the product by the mean of the amplitudes derived from the glutamate ECMax-treated wells. IC50 values for test compounds were generated by fitting the normalized values versus the log of the test compound concentration (in mol/L) using a 4 parameter logistic equation where none of the parameters were fixed. Each of the three values collected at each concentration of test compound were weighted evenly.
The mGluR5 activity was determined using the calcium mobilization assays in human embryonic kidney cells as described herein below, wherein the human embryonic kidney cells were transfected with rat mGluR5. The mGluR5 activity data for some compounds are shown as the average of at least three experiments with the standard error in these cases. If no error is indicated for the mGluR5 activity, the values given represent the results from a single experiment or the average of two experiments. The compounds in Table 1 were synthesized with methods identical or analogous to those shown herein. The requisite starting materials were commercially available, described in the literature, or readily synthesized by one skilled in the art of organic synthesis.
GluMax is the amplitude of response in the presence of 30 μM test compound as a percentage of maximal response (100 μM glutamate). Partial antagonists display concentration-response curves (CRCs) that plateau above 10%.

[1] = intravenous administration, rhesus monkeys; cited from earlier work
cytochrome P450 1A2 = cytochrome P450 1A2 (Homo sapiens (Human), UniProt P05177); settings: cited from earlier work
Sequence of cytochrome P450 1A2 (P05177 whole entry, species assumed): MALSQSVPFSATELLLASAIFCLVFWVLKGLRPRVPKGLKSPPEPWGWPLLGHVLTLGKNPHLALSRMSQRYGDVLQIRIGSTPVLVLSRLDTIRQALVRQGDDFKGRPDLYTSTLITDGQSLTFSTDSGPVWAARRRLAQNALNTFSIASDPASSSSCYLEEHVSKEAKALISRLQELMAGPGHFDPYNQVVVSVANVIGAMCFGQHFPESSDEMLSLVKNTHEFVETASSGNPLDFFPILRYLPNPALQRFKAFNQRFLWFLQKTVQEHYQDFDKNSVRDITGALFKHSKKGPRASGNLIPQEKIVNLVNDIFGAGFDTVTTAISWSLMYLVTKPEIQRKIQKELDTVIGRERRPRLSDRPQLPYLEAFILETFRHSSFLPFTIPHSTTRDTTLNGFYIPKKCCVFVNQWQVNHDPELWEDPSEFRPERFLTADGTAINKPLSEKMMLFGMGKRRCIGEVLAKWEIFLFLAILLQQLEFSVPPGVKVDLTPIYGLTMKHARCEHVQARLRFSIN

mGluR4 = mGluR4 (Homo sapiens (Human), UniProt Q14833); settings: cited from earlier work
Sequence of mGluR4 (Q14833 33-912): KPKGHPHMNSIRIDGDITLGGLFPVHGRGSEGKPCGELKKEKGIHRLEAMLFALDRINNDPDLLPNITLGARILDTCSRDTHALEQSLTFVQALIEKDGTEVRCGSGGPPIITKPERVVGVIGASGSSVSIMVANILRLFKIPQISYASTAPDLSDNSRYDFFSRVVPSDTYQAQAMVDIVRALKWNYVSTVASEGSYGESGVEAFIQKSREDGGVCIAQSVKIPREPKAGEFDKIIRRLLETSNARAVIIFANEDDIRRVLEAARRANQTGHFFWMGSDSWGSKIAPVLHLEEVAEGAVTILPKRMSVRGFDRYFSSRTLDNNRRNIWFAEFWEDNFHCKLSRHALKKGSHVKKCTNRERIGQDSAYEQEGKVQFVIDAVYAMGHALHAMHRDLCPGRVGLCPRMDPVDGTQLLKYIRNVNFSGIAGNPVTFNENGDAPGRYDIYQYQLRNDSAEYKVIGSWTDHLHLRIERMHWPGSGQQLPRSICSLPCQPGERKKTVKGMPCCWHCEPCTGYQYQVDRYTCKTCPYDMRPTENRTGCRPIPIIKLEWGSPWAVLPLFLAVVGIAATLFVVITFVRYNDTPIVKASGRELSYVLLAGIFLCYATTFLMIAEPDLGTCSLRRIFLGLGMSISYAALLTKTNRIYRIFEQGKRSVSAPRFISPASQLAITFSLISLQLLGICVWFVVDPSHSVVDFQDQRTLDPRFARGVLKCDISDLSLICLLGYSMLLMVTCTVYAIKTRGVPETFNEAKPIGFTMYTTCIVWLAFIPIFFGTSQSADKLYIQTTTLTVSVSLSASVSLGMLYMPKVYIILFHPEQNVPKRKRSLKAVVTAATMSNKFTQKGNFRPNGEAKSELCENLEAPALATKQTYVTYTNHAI

[2] = tested on: N-methyl-D-aspartate (NMDA) receptor; settings: at higher concentrations; cited from earlier work

Structure (SMILES) | IC50 (rat mGluR5) [nM] | further results
CCc1cccc(NC(=O)c2cc(-c3cnccc3C)cn3ncnc23)n1 | 1760 | 
Cc1csc(NC(=O)c2cc(-c3ccc4ncccc4c3)cn3ncnc23)n1 | > 10000 | remaining activity at 30 µM (rat mGluR5): 74%
Cc1csc(NC(=O)c2cc(-c3ccc4c(cnn4C)c3)cn3ncnc23)n1 | > 10000 | remaining activity at 30 µM (rat mGluR5): 53%
Cc1cc(-c2cc(C(=O)Nc3ccc(F)cn3)c3nccn3c2)[nH]n1 | 3930 | 
Cc1cc(-c2cc(C(=O)Nc3nc(C)cs3)c3nccn3c2)[nH]n1 | 1410 | 
Cc1csc(NC(=O)c2cc(-c3ccn(C)n3)cn3ncnc23)n1 | > 10000 | remaining activity at 30 µM (rat mGluR5): 70%
Cc1csc(NC(=O)c2cc(-c3cnn(C)c3)cn3ncnc23)n1 | > 10000 | remaining activity at 30 µM (rat mGluR5): 30%
Cc1ccc(NC(=O)c2cc(-c3cnccc3C)cn3ncnc23)nc1 | 325 | 
Cc1csc(NC(=O)c2cc(-c3ccc(F)nc3)cn3ncnc23)n1 | 4930 | 
COc1cccc(NC(=O)c2cc(-c3cnccc3C)cn3ncnc23)n1 | > 10000 | remaining activity at 30 µM (rat mGluR5): 31%
Cc1csc(NC(=O)c2cc(-c3ccnn3C)cn3ncnc23)n1 | 378 ± 17 | 
Cc1csc(NC(=O)c2cc(-c3cnncc3C)cn3ncnc23)n1 | 2910 | 
COc1ccc(C)c(-c2cc(C(=O)Nc3nc(C)cs3)c3ncnn3c2)c1 | 7100 | 
Cc1csc(NC(=O)c2cc(-c3cccnc3F)cn3ncnc23)n1 | 978 | 
Cc1csc(NC(=O)c2cc(-c3cccc4c3cnn4C)cn3ncnc23)n1 | 7020 | 
Cc1cc(-c2cc(C(=O)Nc3ccccn3)c3nccn3c2)[nH]n1 | 1140 | 
Cc1csc(NC(=O)c2cc(-c3ccncc3)cn3ncnc23)n1 | 8070 | 
Cc1cccc(NC(=O)c2cc(-c3cnccc3C)cn3ncnc23)n1 | 793 | 
Cc1csc(NC(=O)c2cc(-c3cccc4cnn(C)c34)cn3ncnc23)n1 | 10200 | 
COc1cnc(-c2cc(C(=O)Nc3nc(C)cs3)c3ncnn3c2)cn1 | > 10000 | remaining activity at 30 µM (rat mGluR5): 71%
Cn1nccc1-c1cc(C(=O)Nc2ccc(F)cn2)c2nncn2c1 | 1450 | 
Cc1csc(NC(=O)c2cc(-c3ccc4c(ccn4C)c3)cn3ncnc23)n1 | > 10000 | remaining activity at 30 µM (rat mGluR5): 27%
Cc1csc(NC(=O)c2cc(-c3cncnc3)cn3ncnc23)n1 | 758 ± 280 | 
Cc1csc(NC(=O)c2cc(-c3cc4ccccc4o3)cn3ncnc23)n1 | > 10000 | remaining activity at 30 µM (rat mGluR5): 39%
Cc1cc(-c2cc(C(=O)Nc3ccc(F)cn3)c3ncnn3c2)[nH]n1 | > 30000 | 
CCc1ccncc1-c1cc(C(=O)Nc2nc(C)cs2)c2ncnn2c1 | 984 | 

Structure (SMILES) | IC50 (rat mGluR5) [nM] | further results
Cc1cc(-c2cc(C(=O)Nc3ccc(F)cn3)c3ncnn3c2)n(C)n1 | 2130 | 
Cc1csc(NC(=O)c2cc(-c3ccccc3)cn3ncnc23)n1 | 385 | 
Cc1csc(NC(=O)c2cc(-c3cccc(F)c3)cn3ncnc23)n1 | 788 | 
Cc1csc(NC(=O)c2cc(-c3cn(C)nc3C)cn3ncnc23)n1 | 2160 | 
Cc1ccc(NC(=O)c2cc(-c3cc(C)n[nH]3)cn3ccnc23)nc1 | 5110 | 
Cc1cc(-c2cc(C(=O)Nc3nc(C)cs3)c3ncnn3c2)[nH]n1 | 60 ± 8 | 
Cc1csc(NC(=O)c2cc(-c3cc(C)nn3C)cn3ncnc23)n1 | 690 | 
Cc1cc(C)cc(-c2cc(C(=O)Nc3nc(C)cs3)c3ncnn3c2)c1 | > 10000 | remaining activity at 30 µM (rat mGluR5): 57%
Cc1cc(-c2cc(C(=O)Nc3nc(C)cs3)c3ncnn3c2)ccn1 | 10000 | 
Cc1csc(NC(=O)c2cc(-c3cnc(F)c(C)c3)cn3ncnc23)n1 | 2810 | 
Cc1csc(NC(=O)c2cc(-c3ccc4cnn(C)c4c3)cn3ncnc23)n1 | > 10000 | remaining activity at 30 µM (rat mGluR5): 30%
Cc1csc(NC(=O)c2cc(-c3ccnnc3)cn3ncnc23)n1 | > 10000 | remaining activity at 30 µM (rat mGluR5): 27%
Cc1cc(-c2cc(C(=O)Nc3cccc(F)n3)c3ncnn3c2)n(C)n1 | 835 | 
Cc1csc(NC(=O)c2cc(-c3ccccc3C)cn3ncnc23)n1 | 7940 | 
Cc1nc(C#Cc2cccnc2)cs1 [MTEP, 3-[(2-methyl-1,3-thiazol-4-yl)ethynyl]pyridine] |  | clearance [1]: efficiently cleared; inhibition of cytochrome P450 1A2 (cytochrome P450 1A2): potent inhibitor
Cc1ccncc1-c1cc(C(=O)Nc2ccc(F)cn2)c2ncnn2c1 | > 10000 | remaining activity at 30 µM (rat mGluR5): 52%
Cc1cncc(-c2cc(C(=O)Nc3nc(C)cs3)c3ncnn3c2)c1 | 1500 | 
Cc1csc(NC(=O)c2cc(-c3ccc4occc4c3)cn3ncnc23)n1 | > 30000 | 
Cc1ccncc1-c1cc(C(=O)Nc2ccccn2)c2ncnn2c1 | 358 | 
CCn1nccc1-c1cc(C(=O)Nc2nc(C)cs2)c2ncnn2c1 | 3920 | 
Cc1cccc(C#Cc2ccccc2)n1 [MPEP, 2-methyl-6-(phenylethynyl)pyridine] |  | activity at mGluR4 (mGluR4): positive allosteric modulator; inhibition of NMDA receptor activity [2]: directly inhibit
COc1ccc(NC(=O)c2cc(-c3cnccc3C)cn3ncnc23)nc1 | 1310 | 
Cc1csc(NC(=O)c2cc(-c3cccnc3)cn3ncnc23)n1 | 587 | 
Cc1cccc(-c2cc(C(=O)Nc3nc(C)cs3)c3ncnn3c2)c1 | 4770 | 
Cc1csc(NC(=O)c2cc(-c3cnccc3C3CC3)cn3ncnc23)n1 | 1010 | 
Cc1csc(NC(=O)c2cc(-c3cnccc3C)cn3ncnc23)n1 | 170 | 
